According to patent US9840493B2, “Modified amino acids comprising tetrazine functional groups, methods of preparation, and methods of their use” (SUTRO BIOPHARMA, INC., priority 2013, dated 2017):
Converted amounts (≈) assume the structure as drawn. Read-outs that look alike come from different tables or passages of the source.

Legend:
[1] = Solubility in phosphate buffered saline pH 7.4 at room temperature; format: physicochemical; conditions: PBS pH 7.4, room temperature; for solubility: phosphate buffered saline, aqueous buffer, thermodynamic from solid
Description: This example describes the solubility of three non-natural amino acids comprising tetrazine functional groups in phosphate buffered saline solution, with a pH of 7.4 (PBS). The example also illustrates and discusses the useful increased solubility of the pyridyl tetrazine amino acids provided herein when compared to a phenyl tetrazine-comprising non-natural amino acid of the art.
A suspension of AB 4091 was formed by adding 1.8 mg of AB 4091 to 5 mL of PBS. The suspension was vortexed for five minutes and sonicated for two minutes. Suspended particles remained. Additional PBS was added to the suspension in small portions, with vortexing, to reach a total volume of 25 mL of PBS. This mixture remained cloudy after shaking overnight at room temperature and turned clear following the addition of 2 mL of PBS with vortexing. Clarity of the solution was determined by visual inspection.
(§1) A solution of compound (9) was formed by adding 8.3 mg of compound (9) to 200 μL of PBS to form a homogeneous solution. An additional 11.5 mg of compound (9) was added to this solution, in small portions, over a period of 20 minutes, with vortexing. The solution remained clear after vortexing, with no particulates or cloudiness observed. The maximum solubility of compound (9) was not reached, due to its high solubility and the limited amount of the compound available.
as §1, with “compound (6)” for “compound (9)”, “adding 8.7” for “adding 8.3”, “a homogenous” for “a homogeneous”, “additional 26.9” for “additional 11.5”, “of 25” for “of 20”

tRNA synthetase 2A9 = target: T1, tRNA synthetase 2A9 (Methanocaldococcus jannaschii, UniProt Q57834, D158G/H70A/L162S/L65V/Q109S/Y32G); assay: Cell-free GFP (K49TAG) expression assay: incorporation of non-natural amino acid by tRNA synthetase 2A9; format: biochemical, Methanococcus jannaschii; conditions: 2-4 μM 2A9, compound of formula 6 at 1 mM, 30° C., 12 h, ex 476 nm / em 510 nm
T1 construct: made in house
Description: (§2) This example provides two novel tRNA synthetases useful with tetrazine-containing amino acids described herein. These two synthetases, designated “2A2” (SEQ ID NO: 4) and “2A9” (SEQ ID NO: 5) were produced by mutagenesis of wild-type tyrosyl-tRNA synthetase (TyrRS) from Methanococcus jannaschii (SEQ ID NO:3). Mutagenesis was performed by assembling overlapping oligonucleotides encoding the mutations by polymerase chain reaction (PCR). Mutants were screened utilizing the green fluorescent protein expression assay described below.
(§3) The ability of the novel tRNA synthetases to incorporate modified amino acids into a polypeptide was evaluated in cell-free protein synthesis reactions comprising DNA encoding SUPERFOLDER green fluorescent protein (GFP). The codon encoding position 49 of the GFP polypeptide, which normally encodes a lysine residue, was substituted with an amber stop codon (TAG). Full-length GFP is expressed only if the novel tRNA synthetases incorporate s modified amino acid into the polypeptide chain. The level of expression of full-length GFP can be evaluated by measuring fluorescence.
(§4) The GFP DNA containing the TAG stop codon was expressed in cell-free protein synthesis reactions as described in Zawada et al., 2011, Biotechnol. Bioeng. […]

tRNA synthetase 2A2 = target: T2, tRNA synthetase 2A2 (Methanocaldococcus jannaschii, UniProt Q57834, D158V/F108W/H70A/I159A/L162V/L65V/Q109S/Y32L); assay: Cell-free GFP (K49TAG) expression assay: incorporation of non-natural amino acid by tRNA synthetase 2A2; format: biochemical, Methanococcus jannaschii; conditions: 4 μM 2A2, compound of formula 9 at 4 mM, 30° C., 12 h, ex 476 nm / em 510 nm
T2 construct: made in house
Description: as §2, §3, §4

[2] = solution remained clear, read-out: final concentration achieved (maximum solubility not reached)

T2 sequence (Q57834 whole entry Y32L/L65V/H70A/F108W/Q109S/D158V/I159A/L162V): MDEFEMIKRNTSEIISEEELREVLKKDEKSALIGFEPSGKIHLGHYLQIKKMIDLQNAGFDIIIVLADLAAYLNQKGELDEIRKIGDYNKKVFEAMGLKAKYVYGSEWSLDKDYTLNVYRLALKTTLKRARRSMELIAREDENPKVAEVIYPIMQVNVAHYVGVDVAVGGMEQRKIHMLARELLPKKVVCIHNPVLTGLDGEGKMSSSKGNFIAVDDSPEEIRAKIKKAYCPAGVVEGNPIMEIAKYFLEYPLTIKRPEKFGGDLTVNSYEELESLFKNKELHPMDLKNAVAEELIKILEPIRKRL
T1 sequence (Q57834 whole entry Y32G/L65V/H70A/Q109S/D158G/L162S): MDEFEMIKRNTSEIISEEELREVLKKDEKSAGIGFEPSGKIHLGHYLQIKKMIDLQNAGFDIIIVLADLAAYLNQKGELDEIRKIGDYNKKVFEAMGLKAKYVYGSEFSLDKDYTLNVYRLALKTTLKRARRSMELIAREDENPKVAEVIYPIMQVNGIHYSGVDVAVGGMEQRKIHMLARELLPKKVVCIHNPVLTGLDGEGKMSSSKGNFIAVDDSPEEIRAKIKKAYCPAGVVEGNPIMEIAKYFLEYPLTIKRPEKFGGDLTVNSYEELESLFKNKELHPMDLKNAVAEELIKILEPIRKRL

Row | solubility ([1]; clarity by visual inspection, read-out: solubility) [mM] | SMILES | GFP fluorescence compared with native GFP positive control (tRNA synthetase 2A9) | solubility relative to the solubility of AB 4091 [1] | solubility [1, 2] [mM] | GFP fluorescence compared with native GFP positive control (tRNA synthetase 2A2)
1 | ~0.215 (≈ 0.059 mg/mL) | Cc1nnc(Nc2ccc(CC(N)C(=O)O)cc2)nn1 (stereo not shown) [AB 4091, reference compound] | – | – | – | –
2 | – | Cc1nnc(Nc2ccc(C[C@H](N)C(=O)O)cn2)nn1 [compound (6)] | approaches that of native GFP | over 3000 fold | ≥ 647 | –
3 | – | Cc1nnc(NCc2ccc(C[C@H](N)C(=O)O)nc2)nn1 [compound (9)] | – | over 1600 fold | ≥ 342 | approximately equivalent to that of native GFP
